Results on 21 compounds are retold here after patent US20260248783A1 (ASCLETIS BIOSCIENCE CO., LTD., priority 2021, published 2026).

The structures appear in SMILES notation. Counter-ions that a name gives are not always drawn. Where only a bound is given, the exact number is not on record here.

In this experiment the target is T1, PD-1/PD-L1 (Homo sapiens, UniProt Q9NZQ7).
T1 construct: Recombinant human PD-L1 protein (19-238) with a Histag at the C-terminus; purchased AcroBiosystems PD1-H5229 (PD-L1); PD1-H5257 (PD-1)
T1 sequence (Q9NZQ7 19-238): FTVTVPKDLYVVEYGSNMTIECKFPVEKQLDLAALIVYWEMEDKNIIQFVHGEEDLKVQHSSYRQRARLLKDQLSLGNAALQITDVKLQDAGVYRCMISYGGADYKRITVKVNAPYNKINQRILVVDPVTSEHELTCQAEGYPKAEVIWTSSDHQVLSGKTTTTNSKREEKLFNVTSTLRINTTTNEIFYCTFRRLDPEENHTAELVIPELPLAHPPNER
As to the kind of experiment: PD-1/PD-L1 Homogeneous Time-Resolved Fluorescence (HTRF) Binding Assay. Conditions: PD-1/PD-L1 HTRF activity; 3 nM PD1, 10 nM PD-L1, 25° C. The protocol: Example 107. PD-1/PD-L1 Homogeneous Time-Resolved Fluorescence (HTRF) Binding Assay
The assays were conducted in a standard black 384-well polystyrene plate with a final volume of 20 μL. Inhibitors were first serially diluted in DMSO and then added to the plate wells before the addition of other reaction components. The final concentration of DMSO in the assay was 1%. The assays were carried out at 25° C. in the PBS buffer (pH 7.4) with 0.05% Tween-20 and 0.1% BSA. Recombinant human PD-L1 protein (19-238) with a Histag at the C-terminus was purchased from AcroBiosystems (PD1-H5229). Recombinant human PD-1 protein (25-167) with Fe tag at the C-terminus was also purchased from AcroBiosystems (PD1-H5257). PD-L1 and PD-1 proteins were diluted in the assay buffer and 10 μL was added to the plate well. Plates were centrifuged and proteins were preincubated with inhibitors for 40 minutes. The incubation was followed by the addition of 10 μL of HTRF detection buffer supplemented with Europium cryptate-labeled anti-human IgG (PerkinElmer-AD0212) specific for Fe and anti-His antibody conjugated to SureLight®—Allophycocyanin (APC, PerkinElmer-AD0059H). After centrifugation, the plate was incubated at 25° C. for 60 min. before reading on a PHERAstar FS plate reader (665 nm/620 nm ratio). Final concentrations in the assay were […], 10 nM PD-L1, 1 nM europium anti-human IgG and 20 nM anti-His-Allophycocyanin. IC50 determination was performed by fitting the curve of percent control activity versus the log of the inhibitor concentration.
For orientation: TR-FRET usually uses a lanthanide donor and a delayed reading to cut background.
The compound `Cc1cn2nc(-c3cccc(-c4cccc(-c5cc6c(=O)n(CCNC7(C(=O)O)CCC(O)CC7)c(C)cn6n5)c4Cl)c3Cl)cc2c(=O)n1CCNC1(C(=O)O)CCC(O)CC1` (stereo not drawn) [Compound 88, 1,1′-((((2,2′-dichloro-[1,1′-biphenyl]-3,3′-diyl)bis(6-methyl-4-oxopyrazolo[1,5-a]pyrazine-2,5(4H)-diyl))bis(ethane-2,1-diyl))bis(azanediyl))bis(4-hydroxycyclohexane-1-carboxylic acid)] yielded an IC50 of 10 to 100 nM. The same measure for `Cn1c(-c2cccc(-c3cccc(-c4nc5c(=O)n(C[C@@H]6CCC(=O)N6)ccc5n4C)c3Cl)c2Cl)nc2c(=O)n(C[C@@H]3CCC(=O)N3)ccc21` [Compound 6, 2,2′-(2,2′-dichloro-[1,1′-biphenyl]-3,3′-diyl)bis(1-methyl-5-(((S)-5-oxopyrrolidin-2-yl)methyl)-1,5-dihydro-4H-imidazo[4,5-c]pyridin-4-one)]: at least 100 nM; for `Cc1cn2cc(-c3cccc(-c4cccc(-c5cc6c(=O)n(CCN[C@@H](CCO)C(=O)O)c(C)cn6c5)c4Cl)c3Cl)cc2c(=O)n1CCN[C@@H](CCO)C(=O)O` [Compound 58, (2S,2'S)-2,2′-((((2,2′-dichloro-[1,1′-biphenyl]-3,3′-diyl)bis(3-methyl-1-oxopyrrolo[1,2-a]pyrazine-7,2(1H)-diyl))bis(ethane-2,1-diyl))bis(azanediyl))bis(4-hydroxybutanoic acid)]: 10 to 100 nM; for `O=C1CC[C@@H](Cn2ccc3sc(-c4cccc(-c5cccc(-c6cc7c(=O)n(C[C@@H]8CCC(=O)N8)ccc7s6)c5Cl)c4Cl)cc3c2=O)N1` [Compound 8, 2,2′-(2,2′-dichloro-[1,1′-biphenyl]-3,3′-diyl)bis(5-(((S)-5-oxopyrrolidin-2-yl)methyl)thieno[3,2-c]pyridin-4(5H)-one)]: 10 to 100 nM. The same measure for `Cc1cn2nc(-c3cccc(-c4cccc(-c5cc6c(=O)n(C[C@H]7CCCN7)c(C)cn6n5)c4Cl)c3Cl)cc2c(=O)n1C[C@H]1CCCN1` [Compound 37, 2,2′-(2,2′-dichloro-[1,1′-biphenyl]-3,3′-diyl)bis(6-methyl-5-(((R)-pyrrolidin-2-yl)methyl)pyrazolo[1,5-a]pyrazin-4(5H)-one) dihydrochloride]: 10 to 100 nM.

With `Cc1cn2nc(-c3cccc(-c4cccc(-c5cc6c(=O)n(CCN[C@H](CO)C(=O)O)c(C)cn6n5)c4Cl)c3Cl)cc2c(=O)n1CCN[C@H](CO)C(=O)O` [Compound 61, (2R,2′R)-2,2′-((((2,2′-dichloro-[1,1′-biphenyl]-3,3′-diyl)bis(6-methyl-4-oxopyrazolo[1,5-a]pyrazine-2,5(4H)-diyl))bis(ethane-2,1-diyl))bis(azanediyl))bis(3-hydroxypropanoic acid)], the IC50 lay within 10 to 100 nM. For `Cc1cn2nc(-c3cccc(-c4cccc(-c5cc6c(=O)n(CCN7CCNCC7)c(C)cn6n5)c4Cl)c3Cl)cc2c(=O)n1CCN1CCNCC1` [Compound 83, 2,2′-(2,2′-dichloro-[1,1′-biphenyl]-3,3′-diyl)bis(6-methyl-5-(2-(piperazin-1-yl)ethyl)pyrazolo[1,5-a]pyrazin-4(5H)-one)] the value was at least 100 nM; for `Cc1cn2nc(-c3cccc(-c4cccc(-c5cc6c(=O)n(CC(C)N[C@@H](CO)C(=O)O)c(C)cn6n5)c4Cl)c3Cl)cc2c(=O)n1CC(C)N[C@@H](CO)C(=O)O` (stereo partly drawn) [Compound 87, (2S,2'S)-2,2′-((((2,2′-dichloro-[1,1′-biphenyl]-3,3′-diyl)bis(6-methyl-4-oxopyrazolo[1,5-a]pyrazine-2,5(4H)-diyl))bis(propane-1,2-diyl))bis(azanediyl))bis(3-hydroxypropanoic acid)], at least 100 nM; for `O=C(O)CCn1cnn2cc(-c3cccc(-c4cccc(-c5cc6c(=O)n(CCC(=O)O)cnn6c5)c4Cl)c3Cl)cc2c1=O` [Compound 24, 3,3′-((2,2′-dichloro-[1,1′-biphenyl]-3,3′-diyl)bis(4-oxopyrrolo[2,1-f][1,2,4]triazine-6,3(4H)-diyl))dipropionic acid], at least 100 nM. For `CCc1cn2nc(-c3cccc(-c4cccc(-c5cc6c(=O)n(C[C@@H]7CCC(=O)N7)c(CC)cn6n5)c4Cl)c3Cl)cc2c(=O)n1C[C@@H]1CCC(=O)N1` [Compound 33, 2,2′-(2,2′-dichloro-[1,1′-biphenyl]-3,3′-diyl)bis(6-ethyl-5-(((S)-5-oxopyrrolidin-2-yl)methyl)pyrazolo[1,5-a]pyrazin-4(5H)-one)] the value was 10 to 100 nM; for `O=C1CCC(Cn2cc(F)n3cc(-c4cccc(-c5cccc(-c6cc7c(=O)n(CC8CCC(=O)N8)cc(F)n7c6)c5Cl)c4Cl)cc3c2=O)N1` (stereo not drawn) [Compound 16, 7,7′-(2,2′-dichloro-[1,1′-biphenyl]-3,3′-diyl)bis(4-fluoro-2-((5-oxopyrrolidin-2-yl)methyl)pyrrolo[1,2-a]pyrazin-1(2H)-one)], 10 to 100 nM. `Cn1c(CN2CC[C@H](O)C2)cn2cc(-c3cccc(-c4cccc(-c5cc6c(=O)n(C)c(CN7CC[C@H](O)C7)cn6c5)c4Cl)c3Cl)cc2c1=O` [Compound 46, 7,7′-(2,2′-dichloro-[1,1′-biphenyl]-3,3′-diyl)bis(3-(((S)-3-hydroxypyrrolidin-1-yl)methyl)-2-methylpyrrolo[1,2-a]pyrazin-1(2H)-one)]: the IC50 was 10 to 100 nM. The same measure for `CCc1nn2cc(-c3cccc(-c4cccc(-c5cc6c(=O)n(CCN[C@@H](CO)C(=O)O)c(CC)nn6c5)c4Cl)c3Cl)cc2c(=O)n1CCN[C@@H](CO)C(=O)O` [Compound 65, (2S,2'S)-2,2′-((((2,2′-dichloro-[1,1′-biphenyl]-3,3′-diyl)bis(2-ethyl-4-oxopyrrolo[2,1-f][1,2,4]triazine-6,3(4H)-diyl))bis(ethane-2,1-diyl))bis(azanediyl))bis(3-hydroxypropanoic acid)]: 10 to 100 nM; for `O=c1c2cc(-c3cccc(-c4cccc(-c5cc6c(=O)n(CCn7cncn7)cnn6c5)c4Cl)c3Cl)cn2ncn1CCn1cncn1` [Compound 22, 6,6′-(2,2′-dichloro-[1,1′-biphenyl]-3,3′-diyl)bis(3-(2-(1H-1,2,4-triazol-1-yl)ethyl)pyrrolo[2,1-f][1,2,4]triazin-4(3H)-one)]: 10 to 100 nM.

As to `O=C1CC[C@@H](Cn2ccn3nc(-c4cccc(-c5cccc(-c6nc7c(=O)n(C[C@@H]8CCC(=O)N8)ccn7n6)c5Cl)c4Cl)nc3c2=O)N1` [Compound 15, 2,2′-(2,2′-dichloro-[1,1′-biphenyl]-3,3′-diyl)bis(7-(((S)-5-oxopyrrolidin-2-yl)methyl)-[1,24]triazolo[1,5-a]pyrazin-8(7H)-one)], the IC50 was under 10 nM. In the case of `Cn1c(-c2cccc(-c3cccc(-c4cc5ncn(C[C@@H]6CCC(=O)N6)c(=O)c5n4C)c3Cl)c2Cl)cc2ncn(C[C@@H]3CCC(=O)N3)c(=O)c21` [Compound 4, 6,6′-(2,2′-dichloro-[1,1′-biphenyl]-3,3′-diyl)bis(5-methyl-3-(((S)-5-oxopyrrolidin-2-yl)methyl)-3,5-dihydro-4H-pyrrolo[3,2-d]pyrimidin-4-one)], the 50% inhibitory concentration (IC50) was at least 100 nM. `O=c1c2cc(-c3cccc(-c4cccc(-c5cc6c(=O)n(CCn7cccn7)cnn6c5)c4Cl)c3Cl)cn2ncn1CCn1cccn1` [Compound 21, 6,6′-(2,2′-dichloro-[1,1′-biphenyl]-3,3′-diyl)bis(3-(2-(1H-pyrazol-1-yl)ethyl)pyrrolo[2,1-f][1,2,4]triazin-4(3H)-one)] displayed an IC50 of at least 100 nM. For `O=C1CCC(Cn2cnn3cc(-c4cccc(-c5cccc(-c6cc7c(=O)n(CC8CCC(=O)O8)cnn7c6)c5Cl)c4Cl)cc3c2=O)O1` (stereo not drawn) [Compound 27, 6,6′-(2,2′-dichloro-[1,1′-biphenyl]-3,3′-diyl)bis(3-((5-oxotetrahydrofuran-2-yl)methyl)pyrrolo[2,1-f][1,2,4]triazin-4(3H)-one)] the value was at least 100 nM. The same measure for `O=c1c2cc(-c3cccc(-c4cccc(-c5cc6c(=O)n(CCn7nccn7)cnn6c5)c4Cl)c3Cl)cn2ncn1CCn1nccn1` [Compound 25, 6,6′-(2,2′-dichloro-[1,1′-biphenyl]-3,3′-diyl)bis(3-(2-(2H-1,2,3-triazol-2-yl)ethyl)pyrrolo[2,1-f][1,2,4]triazin-4(3H)-one)]: 10 to 100 nM; for `CC(=O)NC[C@H](NCCn1c(C)cn2nc(-c3cccc(-c4cccc(-c5cc6c(=O)n(CCN[C@@H](CNC(C)=O)C(=O)O)c(C)cn6n5)c4Cl)c3Cl)cc2c1=O)C(=O)O` [Compound 68, (2S,2'S)-2,2′-((((2,2′-dichloro-[1,1′-biphenyl]-3,3′-diyl)bis(6-methyl-4-oxopyrazolo[1,5-a]pyrazine-2,5(4H)-diyl))bis(ethane-2,1-diyl))bis(azanediyl))bis(3-acetamidopropanoic acid)]: 10 to 100 nM; for `O=C1CC[C@@H](Cn2ccn3cc(-c4cccc(-c5cccc(-c6cn7ccn(C[C@@H]8CCC(=O)N8)c(=O)c7n6)c5Cl)c4Cl)nc3c2=O)N1` [Compound 12, 2,2′-(2,2′-dichloro-[1,1′-biphenyl]-3,3′-diyl)bis(7-(((S)-5-oxopyrrolidin-2-yl)methyl)imidazo[1,2-a]pyrazin-8(7H)-one)]: 10 to 100 nM.

Usually IC50 stands for the concentration that inhibits the measured activity by half.
